Experiment [1] deals with HT-29. The experiment can be described thus: Cytotoxicity against human HT-29 cells after 96 hrs by sulforhodamine-B assay. It counts as functional, cell-based. To be noted: HT-29, 96 h. A general note: The SRB assay estimates cell density from bound dye.
The subject of experiment [2] is MCF7. Put plainly: Cytotoxicity against human MCF7 cells after 96 hrs by sulforhodamine-B assay. Type of experiment: functional, cell-based. To be noted: MCF7, 96 h.
In experiment [3] the test system is 518A2. Put plainly: Cytotoxicity against human 518A2 cells after 96 hrs by sulforhodamine-B assay. Type of experiment: functional, cell-based. To be noted: 518A2, 96 h.
Experiment [4] deals with A2780. Put plainly: Cytotoxicity against human A2780 cells after 96 hrs by sulforhodamine-B assay. To be noted: A2780, 96 h. It counts as functional, cell-based.
The test system of experiment [5] is A549. Put plainly: Cytotoxicity against human A549 cells after 96 hrs by sulforhodamine-B assay. It counts as functional, cell-based. To be noted: A549, 96 h.
In experiment [6] the test system is FaDu. The experiment can be described thus: Cytotoxicity against human FADU cells after 96 hrs by sulforhodamine-B assay. Type of experiment: functional, cell-based.
Experiment [7] has as its system NIH3T3. The experiment can be described thus: Cytotoxicity against mouse NIH/3T3 cells after 96 hrs by sulforhodamine-B assay. Type of experiment: cell-based. To be noted: NIH3T3, 96 h.

pEC50: −log10 of the molar value.

A word on the pEC50: it is −log10 of the EC50, conventionally taken in molar units. Read a low pEC50 as a high EC50.

`CCCCN(CC(=O)NCc1ccccc1)C(=O)[C@]12CCC(C)(C)C[C@H]1C1=CC[C@@H]3[C@@]4(C)CC[C@H](OC(C)=O)C(C)(C)[C@@H]4CC[C@@]3(C)[C@]1(C)CC2`: the pEC50 is < 4.52 in experiment [1]; < 4.52 in experiment [2]; 5.09 in experiment [3]; 5.36 in experiment [4]; < 4.52 in experiment [5]; 4.70 in experiment [6]. Moreover, the pEC50 in experiment [7] is < 4.52.
As for `CC(=O)O[C@H]1CC[C@]2(C)[C@H]3CC=C4[C@@H]5CC(C)(C)CC[C@]5(C(=O)N(CC(=O)NCc5ccccc5)Cc5ccccc5)CC[C@@]4(C)[C@]3(C)CC[C@H]2C1(C)C`, the negative logarithm of the EC50 (pEC50) in experiment [1] is < 4.52; in experiment [2] it was < 4.52; in experiment [3] it was 4.87; in experiment [4], 5.27; in experiment [5], < 4.52; in experiment [6], 4.69. Further, the pEC50 in experiment [7] was < 4.52.
Take `CC(=O)O[C@@H]1C[C@]2(C)[C@H]3CC=C4[C@@H]5CC(C)(C)CC[C@]5(C(=O)N(CC(=O)NC(C)(C)C)Cc5ccoc5)CC[C@@]4(C)[C@]3(C)CC[C@H]2C(C)(C)[C@H]1OC(C)=O`: the pEC50 was 5.47 in experiment [1]; 5.40 in experiment [2]; 5.41 in experiment [3]; 6.40 in experiment [4]; 5.46 in experiment [5]; 5.52 in experiment [6]. In experiment [7], this compound had a negative logarithm of the EC50 (pEC50) of 5.14.
As to `CC(=O)O[C@H]1CC[C@]2(C)[C@H]3CC=C4[C@@H]5CC(C)(C)CC[C@]5(C(=O)OCC(=O)NC(C)(C)C)CC[C@@]4(C)[C@]3(C)CC[C@H]2C1(C)C`, the pEC50 in experiment [1] is 4.56; in experiment [2], 4.89; in experiment [3], 4.88; in experiment [4], 5.06; in experiment [5], 4.88; in experiment [6], 4.90. Also, in experiment [7], the pEC50 was 4.70.
`CC1(C)CC[C@]2(C(=O)N(CC(=O)NC(C)(C)C)Cc3ccoc3)CC[C@]3(C)C(=CC[C@@H]4[C@@]5(C)CC[C@H](O)C(C)(C)[C@@H]5CC[C@]43C)[C@@H]2C1`: the pEC50 in experiment [1] was 5.17; in experiment [2], 5.39; in experiment [3], 4.86; in experiment [4], 5.00; in experiment [5], 4.72; in experiment [6], 4.76. Also, the pEC50 in experiment [7] was 4.93.
Regarding `CCCCNC(=O)CN(Cc1ccoc1)C(=O)[C@]12CCC(C)(C)C[C@H]1C1=CC[C@@H]3[C@@]4(C)CC[C@H](OC(C)=O)C(C)(C)[C@@H]4CC[C@@]3(C)[C@]1(C)CC2`, the pEC50 in experiment [1] is < 4.52; in experiment [2] it was 4.86; in experiment [3] it was 4.95; in experiment [4], 5.25; in experiment [5], 4.79; in experiment [6], 4.75. In experiment [7], the pEC50 is < 4.52.
In the case of `CC(=O)O[C@H]1CC[C@]2(C)[C@H]3CC=C4[C@@H]5CC(C)(C)CC[C@]5(C(=O)N(CC(=O)NC(C)C)Cc5ccoc5)CC[C@@]4(C)[C@]3(C)CC[C@H]2C1(C)C`, the pEC50 in experiment [1] was 5.02; in experiment [2], 4.78; in experiment [3], 5.19; in experiment [4] it was 5.44; in experiment [5], 5.12; in experiment [6], 4.90. This compound gave a negative-log EC50 (pEC50) in experiment [7] of 5.00.
For `CC(=O)O[C@H]1CC[C@]2(C)[C@H]3CC=C4[C@@H]5CC(C)(C)CC[C@]5(C(=O)N(CC(=O)NCc5ccccc5)C(C)C)CC[C@@]4(C)[C@]3(C)CC[C@H]2C1(C)C`, the pEC50 in experiment [1] was 4.85; in experiment [2], 5.01; in experiment [3] it was 4.68; in experiment [4] it was 5.08; in experiment [5] it was 4.83; in experiment [6] it was 5.00. Also, the negative logarithm of the EC50 (pEC50) in experiment [7] was 4.99.

Values taken from ChEMBL document CHEMBL4196076, “An access to a library of novel triterpene derivatives with a promising pharmacological potential by Ugi and Passerini multicomponent reactions” (Eur J Med Chem, 2018).
